The numbers were not newly measured in article PMC2737817 (Bioorganic & medicinal chemistry letters, 2009), which cites them from elsewhere.

One series concerns GPI/LMMP. The settings on record: read-out: Functional Bioactivity GPI (IC50); ± S.E.M.; ref [42]; SEM.
Another series relates to MVD. The conditions noted are these: read-out: Functional Bioactivity MVD (IC50); ± S.E.M.; ref [42]; SEM.

In general, IC50 refers to the concentration that gives 50% inhibition. Tyr-Pro-Phe-Phe-NH2 [EM-2]: the IC50 in the series with GPI/LMMP is 15 ± 2 nM. With Tyr-Pro-Trp-Phe-NH2 [EM-1], the IC50 is 1710 ± 110 nM in the series on MVD and 28 ± 3 nM with GPI/LMMP.
